The clearance is a measure of how efficiently the substance is removed, as volume per time. Low values mean inefficient removal, high ones efficient removal. For orientation: inhibition means how much of the control response was suppressed. A higher inhibition goes with a strong effect. The term AUC denotes the area under the concentration-time curve, a measure of exposure. As usually defined, the Ki is a measure of affinity in units of concentration, obtained from inhibition or displacement. A high value points to weaker binding. What is called bioavailability is the share of a dose that reaches the circulation, judged against a reference dose that is usually intravenous. A word on the Vd: it is a proportionality between amount in the body and measured concentration, not a real space. Higher therefore signals extensive tissue distribution. The term half-life denotes how long it takes for the measured level to halve. Low readings indicate fast loss, high ones slow loss. A word on the Cmax: it is the highest concentration seen after dosing. A word on the IC50: it is the point on the concentration scale where inhibition reaches its midpoint. The low end stands for higher potency, the high end for lower potency. The term EC50 denotes the concentration that produces a half-maximal response.

SMILES strings stand for the structures. Where only a bound is given, the exact number is not on record here.

The species entered for series [1] is Homo sapiens. In words: Selectivity ratio of Ki for human H2 receptor to Ki for human H3 receptor.
Series [2] is described as follows: Clearance in rat at 1 mg/kg, iv. It counts as ADME, organism-based. More on the design: dose 1 mg/kg, route intravenous. As to conditions: in vivo.
Series [3] concerns the target Histamine H2 receptor (Homo sapiens) (UniProt P25021). In words: Binding affinity to human histamine H2 receptor at 10 uM by radioligand binding assay.
Series [4] concerns the target Histamine H1 receptor (Homo sapiens) (UniProt P35367). In words: Binding affinity to human histamine H1 receptor at 10 uM by radioligand binding assay.
Series [5] can be described thus: AUC in rat at 5 mg/kg, po. Format: ADME, organism-based. Also noted: dose 5 mg/kg, route oral. Conditions: plasma.
The target of series [6] is T1, Histamine H3 receptor (Homo sapiens, UniProt Q9Y5N1). Put plainly: Displacement of [3H]NAMH from human histamine H3 receptor expressed in CHO cell membrane. Format: cell membranes. Background: In a radioligand displacement assay an active substance lowers the binding of a labelled ligand.
T1 sequence (Q9Y5N1 whole entry): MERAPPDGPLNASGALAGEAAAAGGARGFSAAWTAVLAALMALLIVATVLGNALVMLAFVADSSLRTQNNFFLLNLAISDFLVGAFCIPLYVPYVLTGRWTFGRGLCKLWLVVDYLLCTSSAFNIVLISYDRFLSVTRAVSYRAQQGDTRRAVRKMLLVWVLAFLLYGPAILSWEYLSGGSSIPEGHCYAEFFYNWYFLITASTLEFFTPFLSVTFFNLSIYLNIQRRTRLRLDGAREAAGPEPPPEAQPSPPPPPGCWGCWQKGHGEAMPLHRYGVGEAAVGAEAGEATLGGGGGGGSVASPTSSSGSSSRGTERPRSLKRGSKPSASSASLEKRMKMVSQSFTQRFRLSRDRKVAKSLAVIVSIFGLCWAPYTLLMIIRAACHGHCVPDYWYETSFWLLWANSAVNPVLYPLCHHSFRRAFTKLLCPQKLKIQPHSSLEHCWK
Series [7] in a line: Oral bioavailability in rat at 5 mg/kg. It counts as ADME, organism-based. Conditions: in vivo.
Series [8] is filed under the species Homo sapiens. Put plainly: Selectivity ratio of Ki for human H1 receptor to Ki for human H3 receptor.
The target of series [9] is Histamine H4 receptor (Homo sapiens) (UniProt Q9H3N8). In words: Binding affinity to human histamine H4 receptor at 10 uM by radioligand binding assay.
Histamine H4 receptor (Homo sapiens), sequence (Q9H3N8 whole entry): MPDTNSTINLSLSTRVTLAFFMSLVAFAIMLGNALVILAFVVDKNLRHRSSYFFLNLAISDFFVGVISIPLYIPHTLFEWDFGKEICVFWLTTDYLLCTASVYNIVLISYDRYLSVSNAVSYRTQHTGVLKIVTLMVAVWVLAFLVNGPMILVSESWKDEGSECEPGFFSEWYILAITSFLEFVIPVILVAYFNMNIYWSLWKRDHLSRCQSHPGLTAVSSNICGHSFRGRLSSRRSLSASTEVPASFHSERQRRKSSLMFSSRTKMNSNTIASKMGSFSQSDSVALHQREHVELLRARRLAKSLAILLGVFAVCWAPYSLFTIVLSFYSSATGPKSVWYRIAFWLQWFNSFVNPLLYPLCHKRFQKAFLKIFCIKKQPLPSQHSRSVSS
A short description of series [10]: (§1) Volume of distribution in rat at 1 mg/kg, iv. Format: ADME, organism-based. As to conditions: in vivo. Also noted: dose 1 mg/kg, route intravenous.
The species entered for series [11] is Homo sapiens. In words: Selectivity ratio of Ki for human H4 receptor to Ki for human H3 receptor.
Series [12] is described as follows: (§2) Half life in rat at 1 mg/kg, iv. Conditions: in vivo. Format: ADME, organism-based. More on the design: dose 1 mg/kg, route intravenous.
Series [13] has as its target Histamine H3 receptor (Rattus norvegicus, UniProt Q9QYN8). In words: Displacement of [3H]NAMH from rat histamine H3 receptor expressed in CHO cell membrane. Format: cell membranes.
Series [14] in a line: Cmax in rat at 5 mg/kg, po. Conditions: in vivo. Also noted: dose 5 mg/kg, route oral. It counts as ADME, organism-based.
The next series concerns the target T2, Cytochrome P450 1A2 (Homo sapiens, UniProt P05177).
T2 sequence (P05177 whole entry): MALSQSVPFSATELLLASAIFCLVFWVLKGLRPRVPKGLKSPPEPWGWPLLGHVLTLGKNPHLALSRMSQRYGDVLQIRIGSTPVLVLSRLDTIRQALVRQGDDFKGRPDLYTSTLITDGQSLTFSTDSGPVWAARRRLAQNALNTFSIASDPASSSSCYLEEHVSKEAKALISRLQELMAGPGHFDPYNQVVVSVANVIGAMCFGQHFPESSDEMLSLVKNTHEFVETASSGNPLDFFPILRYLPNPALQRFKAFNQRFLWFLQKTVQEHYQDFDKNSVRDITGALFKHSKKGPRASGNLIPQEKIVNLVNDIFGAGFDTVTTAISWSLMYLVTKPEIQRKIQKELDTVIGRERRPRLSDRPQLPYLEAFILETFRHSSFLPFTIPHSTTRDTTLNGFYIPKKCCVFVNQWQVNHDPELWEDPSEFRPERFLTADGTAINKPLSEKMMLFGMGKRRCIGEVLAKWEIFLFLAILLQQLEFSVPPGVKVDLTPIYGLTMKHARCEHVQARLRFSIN
In words: Inhibition of CYP1A2. Format: ADME.

The next series addresses Cytochrome P450 3A4 (Homo sapiens, UniProt P08684). In words: Inhibition of CYP3A4. It counts as ADME.
A further series addresses Cytochrome P450 2C9 (Homo sapiens, UniProt P11712). In words: Inhibition of CYP2C9. Format: ADME.
For another series, the target named is Cytochrome P450 2D6 (Homo sapiens, UniProt P10635). Put plainly: Inhibition of CYP2D6. Format: ADME.
Cytochrome P450 2D6, sequence (P10635 whole entry): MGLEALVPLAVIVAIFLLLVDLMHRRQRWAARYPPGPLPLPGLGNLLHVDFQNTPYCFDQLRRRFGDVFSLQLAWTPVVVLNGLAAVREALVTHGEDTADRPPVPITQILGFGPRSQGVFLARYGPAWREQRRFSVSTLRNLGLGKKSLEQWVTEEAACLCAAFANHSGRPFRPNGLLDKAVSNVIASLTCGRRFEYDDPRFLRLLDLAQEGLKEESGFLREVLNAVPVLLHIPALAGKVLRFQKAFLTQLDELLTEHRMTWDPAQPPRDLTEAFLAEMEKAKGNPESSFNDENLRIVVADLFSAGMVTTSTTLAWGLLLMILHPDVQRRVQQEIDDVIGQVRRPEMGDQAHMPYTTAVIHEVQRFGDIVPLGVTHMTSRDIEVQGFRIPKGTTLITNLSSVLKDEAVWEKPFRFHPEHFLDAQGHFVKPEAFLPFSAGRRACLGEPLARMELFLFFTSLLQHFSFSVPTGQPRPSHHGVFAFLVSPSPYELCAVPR
The target of the next series is hERG (KCNH2) (Homo sapiens, UniProt Q12809). In words: Displacement of astemizole from human ERG at 10 uM. Conditions: probe astemizole.
hERG (KCNH2), sequence (Q12809 whole entry): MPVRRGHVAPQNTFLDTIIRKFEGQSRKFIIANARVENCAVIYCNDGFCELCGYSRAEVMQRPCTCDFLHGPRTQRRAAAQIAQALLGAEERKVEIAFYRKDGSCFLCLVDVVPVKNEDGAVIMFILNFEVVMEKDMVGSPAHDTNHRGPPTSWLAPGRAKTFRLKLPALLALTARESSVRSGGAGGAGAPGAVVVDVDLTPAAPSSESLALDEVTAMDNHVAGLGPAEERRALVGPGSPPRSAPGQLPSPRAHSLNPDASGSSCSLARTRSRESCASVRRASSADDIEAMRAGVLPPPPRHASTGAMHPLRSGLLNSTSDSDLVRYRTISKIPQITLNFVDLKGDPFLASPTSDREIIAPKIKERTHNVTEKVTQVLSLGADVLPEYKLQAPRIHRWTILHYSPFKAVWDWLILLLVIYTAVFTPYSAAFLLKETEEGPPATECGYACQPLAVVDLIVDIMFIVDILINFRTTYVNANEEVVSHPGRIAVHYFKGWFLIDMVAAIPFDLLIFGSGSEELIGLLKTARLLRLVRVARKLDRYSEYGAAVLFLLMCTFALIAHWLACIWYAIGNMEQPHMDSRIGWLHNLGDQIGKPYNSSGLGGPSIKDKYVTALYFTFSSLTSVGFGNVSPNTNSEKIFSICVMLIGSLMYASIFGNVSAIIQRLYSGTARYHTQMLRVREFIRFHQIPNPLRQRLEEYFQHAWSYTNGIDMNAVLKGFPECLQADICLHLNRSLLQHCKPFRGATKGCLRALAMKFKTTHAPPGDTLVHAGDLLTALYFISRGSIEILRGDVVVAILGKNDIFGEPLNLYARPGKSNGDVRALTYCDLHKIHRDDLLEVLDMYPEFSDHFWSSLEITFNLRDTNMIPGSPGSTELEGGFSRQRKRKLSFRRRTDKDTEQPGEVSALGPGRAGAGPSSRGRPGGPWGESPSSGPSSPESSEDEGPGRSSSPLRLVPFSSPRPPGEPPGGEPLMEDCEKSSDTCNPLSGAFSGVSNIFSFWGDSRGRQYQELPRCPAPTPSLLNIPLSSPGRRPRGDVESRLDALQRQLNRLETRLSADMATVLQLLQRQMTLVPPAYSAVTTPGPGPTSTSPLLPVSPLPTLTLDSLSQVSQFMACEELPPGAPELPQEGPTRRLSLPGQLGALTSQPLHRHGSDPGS
In the next series the target is Cytochrome P450 2C19 (Homo sapiens, UniProt P33261). Put plainly: Inhibition of CYP2C19. Format: ADME.
The target in series [15] is T1, Histamine H3 receptor. Put plainly: Inverse agonist activity at human H3 receptor by [35S]GTPgamma binding assay. It counts as functional.
Series [16] is described as follows: Drug uptake in rat brain at 5 mg/kg, po after 6 hrs. It counts as ADME, organism-based. More on the design: dose 5 mg/kg, route oral. Conditions: read-out: Drug uptake.
The subject of series [17] is Rattus norvegicus. The series is described as §1. Format: ADME, organism-based. More on the design: dose 1 mg/kg, route intravenous. Conditions: in vivo.
Series [18] deals with Rattus norvegicus. The description is as §2. Format: ADME, organism-based. Also noted: dose 1 mg/kg, route intravenous. As to conditions: in vivo.
A short description of series [19]: Ratio of drug uptake in brain to plasma in rat at 5 mg/kg, po. More on the design: dose 5 mg/kg, route oral. Format: ADME, organism-based. Conditions: read-out: BPR.

Histamine H1 receptor (Homo sapiens), sequence (P35367 whole entry): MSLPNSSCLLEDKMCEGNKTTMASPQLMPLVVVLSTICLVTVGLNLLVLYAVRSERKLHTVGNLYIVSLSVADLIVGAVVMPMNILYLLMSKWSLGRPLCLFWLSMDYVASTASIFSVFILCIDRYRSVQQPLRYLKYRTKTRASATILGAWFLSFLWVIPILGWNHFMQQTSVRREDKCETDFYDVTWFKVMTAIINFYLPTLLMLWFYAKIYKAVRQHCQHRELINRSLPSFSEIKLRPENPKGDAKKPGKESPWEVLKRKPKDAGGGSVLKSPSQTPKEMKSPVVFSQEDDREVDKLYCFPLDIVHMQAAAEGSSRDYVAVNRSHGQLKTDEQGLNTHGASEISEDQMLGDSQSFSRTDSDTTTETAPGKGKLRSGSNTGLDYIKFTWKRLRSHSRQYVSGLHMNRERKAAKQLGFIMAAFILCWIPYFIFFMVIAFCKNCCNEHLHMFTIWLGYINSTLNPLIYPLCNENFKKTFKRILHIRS
Histamine H3 receptor (Rattus norvegicus, UniProt Q9QYN8), sequence (Q9QYN8 whole entry): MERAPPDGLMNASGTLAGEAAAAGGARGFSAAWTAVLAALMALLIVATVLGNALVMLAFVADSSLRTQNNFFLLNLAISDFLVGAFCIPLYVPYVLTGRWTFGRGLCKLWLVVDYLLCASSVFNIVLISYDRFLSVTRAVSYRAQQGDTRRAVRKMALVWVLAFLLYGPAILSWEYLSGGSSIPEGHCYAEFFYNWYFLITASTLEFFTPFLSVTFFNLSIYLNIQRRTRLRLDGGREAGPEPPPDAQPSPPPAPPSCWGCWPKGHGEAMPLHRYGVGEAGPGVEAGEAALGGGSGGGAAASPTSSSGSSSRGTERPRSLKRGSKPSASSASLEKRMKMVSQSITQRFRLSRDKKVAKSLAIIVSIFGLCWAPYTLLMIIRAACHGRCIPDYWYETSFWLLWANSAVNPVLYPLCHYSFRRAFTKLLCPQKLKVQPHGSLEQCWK
Histamine H2 receptor (Homo sapiens), sequence (P25021 whole entry): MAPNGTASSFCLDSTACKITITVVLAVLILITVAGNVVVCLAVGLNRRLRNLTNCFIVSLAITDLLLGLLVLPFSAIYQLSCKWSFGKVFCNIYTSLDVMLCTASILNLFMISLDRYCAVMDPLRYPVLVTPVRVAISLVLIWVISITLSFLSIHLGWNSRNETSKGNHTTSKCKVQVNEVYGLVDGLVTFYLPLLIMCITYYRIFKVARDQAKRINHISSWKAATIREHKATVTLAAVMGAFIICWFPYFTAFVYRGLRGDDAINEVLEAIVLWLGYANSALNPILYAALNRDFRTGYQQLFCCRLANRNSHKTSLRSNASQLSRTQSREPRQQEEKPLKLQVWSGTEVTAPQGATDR
Cytochrome P450 2C9, sequence (P11712 whole entry): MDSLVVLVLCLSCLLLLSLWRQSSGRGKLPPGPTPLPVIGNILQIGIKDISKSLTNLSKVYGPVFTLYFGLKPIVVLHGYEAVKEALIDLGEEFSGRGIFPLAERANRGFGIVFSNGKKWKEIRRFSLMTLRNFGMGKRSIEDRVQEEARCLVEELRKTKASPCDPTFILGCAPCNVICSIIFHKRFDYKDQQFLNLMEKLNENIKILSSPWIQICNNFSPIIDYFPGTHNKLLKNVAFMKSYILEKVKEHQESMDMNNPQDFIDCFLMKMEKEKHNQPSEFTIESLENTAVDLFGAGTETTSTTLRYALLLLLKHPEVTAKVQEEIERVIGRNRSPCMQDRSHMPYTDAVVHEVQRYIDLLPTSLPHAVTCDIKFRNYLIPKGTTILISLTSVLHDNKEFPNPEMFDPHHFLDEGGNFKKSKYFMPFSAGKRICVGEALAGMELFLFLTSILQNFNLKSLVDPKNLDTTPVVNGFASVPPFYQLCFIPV
Cytochrome P450 3A4, sequence (P08684 whole entry): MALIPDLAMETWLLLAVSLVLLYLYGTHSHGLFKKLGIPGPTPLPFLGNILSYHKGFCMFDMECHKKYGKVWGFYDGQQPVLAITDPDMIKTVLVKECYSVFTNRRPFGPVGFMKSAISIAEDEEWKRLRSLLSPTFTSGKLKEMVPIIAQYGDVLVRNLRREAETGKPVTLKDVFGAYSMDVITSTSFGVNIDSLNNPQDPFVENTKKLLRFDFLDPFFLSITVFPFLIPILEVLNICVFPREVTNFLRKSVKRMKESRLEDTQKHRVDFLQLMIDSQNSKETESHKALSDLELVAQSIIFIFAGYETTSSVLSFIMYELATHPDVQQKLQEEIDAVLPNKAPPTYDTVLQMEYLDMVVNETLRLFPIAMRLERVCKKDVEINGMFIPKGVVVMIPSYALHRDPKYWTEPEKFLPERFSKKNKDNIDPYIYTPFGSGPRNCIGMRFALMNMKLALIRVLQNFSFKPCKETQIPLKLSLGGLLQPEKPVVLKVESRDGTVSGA

Turning to `C[C@@H]1CCCN1CCCOc1ccc2c(c1)CCc1cc(=O)[nH]nc1-2`, the Ratio Ki in the series listed under Homo sapiens [1], in the series listed under Homo sapiens [8] and in the series filed under Homo sapiens [11] was greater than 1000 each time. The same compound gave a clearance in series [2] of 0.66 L/h/kg. The inhibition in [3], in series [4] and in series [9] was less than 40% throughout. In addition, in series [5], the AUC turned out to be 0.191 µg·h/mL. Besides, the Ki on Histamine H3 receptor [6] was determined as 0.0043 µM; on Histamine H3 receptor [13] it was 0.014 µM. The compound further showed a bioavailability in series [7] of 2%. The same compound showed a Vd in [10] of 1.2 L/kg. The half-life in series [12] is 84 min. The Cmax in [14] was found to be 0.034 µg/mL.

`C[C@@H]1CCCN1CCCOc1ccc2c(c1)CCC1CC(=O)NN=C21` (mixture of isomers): the clearance in [2] came to 5.58 L/h/kg. In series [5], this compound came in with an AUC of 0.096 µg·h/mL. For the same compound, the Ki at Histamine H3 receptor [6] was 0.015 µM; on Histamine H3 receptor [13], 0.053 µM. Also, the bioavailability in [7] worked out at 11%. This compound also displayed a Vd in series [10] of 6 L/kg. In series [12], this compound had a half-life of 42 min. Besides, in series [14], the Cmax amounted to 0.027 µg/mL.

As to `CC(C)n1nc2c(cc1=O)CCc1cc(OCCCN3CCC[C@H]3C)ccc1-2`, the Ratio Ki in the series filed under Homo sapiens [1], in the series listed under Homo sapiens [8] and in the series filed under Homo sapiens [11] was greater than 1000 in each case. Moreover, the inhibition in [3], in [4] and in series [9] was less than 40% throughout. The Ki is 0.0042 µM on Histamine H3 receptor [6] and 0.017 µM at Histamine H3 receptor [13].

In the case of `O=c1cc2c(nn1Cc1ccccc1)-c1ccc(OCCCN3CCCCC3)cc1CC2`, the Ki on Histamine H3 receptor [6] amounted to 0.105 µM; at Histamine H3 receptor [13], 0.14 µM.

As for `C[C@@H]1CCCN1CCCOc1ccc2c(c1)CCc1n[nH]c(=O)cc1-2`, the inhibition in [3], in series [4] and in [9] was less than 45% each time. For the same compound, the results for the Ki at Histamine H3 receptor [6] and at Histamine H3 receptor [13] were 0.0062 µM and 0.019 µM, respectively.

With `C[C@@H]1CCCN1CCCOc1ccc2c(c1)CCc1cc(=O)n(-c3ccccc3)nc1-2`, the results for the Ki at Histamine H3 receptor [6] and at Histamine H3 receptor [13] were 0.016 µM and 0.023 µM, respectively.

Turning to `C[C@@H]1CCCN1CCCOc1ccc2c(c1)CCc1cc(=O)n(C)nc1-2`, the Ratio Ki in the series listed under Homo sapiens [1], in the series filed under Homo sapiens [8] and in the series filed under Homo sapiens [11] was greater than 1000 in each case. The compound further had a clearance in series [2] of 2.16 L/h/kg. Further, the inhibition in series [3], in series [4] and in series [9] was less than 40% each time. The IC50 on Cytochrome P450 1A2, against Cytochrome P450 3A4, against Cytochrome P450 2C9, against Cytochrome P450 2D6 and on Cytochrome P450 2C19 was greater than 30 µM throughout. In addition, the AUC in series [5] worked out at 0.08 µg·h/mL. The Ki on Histamine H3 receptor [6] worked out at 0.0036 µM; on Histamine H3 receptor [13], 0.0083 µM. Also, in series [7], the bioavailability worked out at 3%. In [10], this compound showed a Vd of 1.3 L/kg. Besides, on hERG (KCNH2), the inhibition at 10 µM was determined as 34%. This compound also gave a half-life in [12] of 24 min. The compound also gave an EC50 on Histamine H3 receptor [15] of 0.0017 µM. For the same compound, the Cmax in [14] is 0.024 µg/mL.

For the compound `O=C1CC2CCc3cc(OC4CCN(C5CCC5)CC4)ccc3C2=NN1` (racemic), in [16], the concentration at 6 h was found to be 0.78 µM. Moreover, the AUC in series [5] worked out at 0.468 µg·h/mL. The figures for the Ki on Histamine H3 receptor [6] and at Histamine H3 receptor [13] were 0.017 µM and 0.026 µM, respectively. In series [7], this compound had a bioavailability of 44%. The Vd in the series with Rattus norvegicus [17] was 6.6 L/kg. In addition, in the series with Rattus norvegicus [18], the t1/2 was 54 min. For the same compound, the Kp in series [19] came to 5.2. For the same compound, the highest level in [14] (Cmax) was 0.075 µg/mL.

Source of the values: ChEMBL document CHEMBL2029210, “Synthesis of constrained benzocinnolinone analogues of CEP-26401 (irdabisant) as potent, selective histamine H3 receptor inverse agonists” (Bioorg Med Chem Lett, 2012).
